The source made the active and inactive calls.
Tests used:
[1] = HEK-293T cell viability reduction – luminescence, B-cell screen hits, cytotoxicity control for BCR NF-kB inhibitor project, dose response (AID 489021); type: functional, cell-based;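 further: HEK-293T cells carrying an NF-kB luciferase reporter; cells exposed to compound for about 14 hours before viability readout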
[2] = microbe, parasite or virus in culture; type: functional; details: Mycobacterium tuberculosis
[3] = alpha-synuclein stem-loop luciferase translation blockers – H4 neuroglioma cells, luminescence, confirmation (AID 1988); type: functional, cell-based
[4] = Luminescence Cell-Based Dose Response HTS to Identify Inhibitors of 5'UTR Stem-Loop Driven Prion Protein mRNA Translation in H4 Neuroglioblastoma Cells. [Related pubchem assays: 1827 (Project Summary), 1813 (Primary HTS)]; type: functional
[5] = luciferase reporter signal suppression in cells – H4 neuroglioma cells, luminescence, dose response (AID 1990); type: functional, cell-based
[6] = molecular target: T1, Ubiquitin-conjugating enzyme E2 N (Homo sapiens, UniProt P61088); type: functional;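 further: Dose-response confirmation in a TR-FRET assay detecting UBC13-driven polyubiquitin chain formation, inhibition measured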
T1 sequence (P61088 whole entry): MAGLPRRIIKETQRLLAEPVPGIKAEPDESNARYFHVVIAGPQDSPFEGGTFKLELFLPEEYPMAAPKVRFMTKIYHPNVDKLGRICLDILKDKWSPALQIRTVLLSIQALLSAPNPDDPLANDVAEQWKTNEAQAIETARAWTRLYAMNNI

[7] = NIH-3T3 fibroblast cytotoxicity, dose response, cytotoxicity control, cell-based, fluorescence, Alamar Blue, secondary assay (AID 2327); type: functional;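 further: NIH-3T3 mouse fibroblasts cultured with fluconazole at 8 µg/mL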
HEK293 [8] = test: cells; type: functional, cell-based; details: Homo sapiens
[9] = fluconazole-exposed Candida albicans growth modulators – fluorescence, retest, confirmation (AID 2467); type: functional, cell-based
HEK293 [10] = test: cells; type: functional, cell-based; details: Homo sapiens; remark: listed apart in the source
HEK293 [11] = test: inhibition of NOD1-driven NF-kB reporter – cell-based, luminescence, uHTS, primary screen (AID 1578); type: functional; details: Homo sapiens
HEK293 [12] = test: NOD2 signaling inhibitors in MDP-stimulated cells, cell-based, uHTS, luminescence (AID 2001); type: functional; details: Homo sapiens
[13] = molecular target: T2, DNA repair protein RAD52 homolog (Homo sapiens, UniProt P43351); type: functional, biochemical
T2 sequence (P43351 whole entry): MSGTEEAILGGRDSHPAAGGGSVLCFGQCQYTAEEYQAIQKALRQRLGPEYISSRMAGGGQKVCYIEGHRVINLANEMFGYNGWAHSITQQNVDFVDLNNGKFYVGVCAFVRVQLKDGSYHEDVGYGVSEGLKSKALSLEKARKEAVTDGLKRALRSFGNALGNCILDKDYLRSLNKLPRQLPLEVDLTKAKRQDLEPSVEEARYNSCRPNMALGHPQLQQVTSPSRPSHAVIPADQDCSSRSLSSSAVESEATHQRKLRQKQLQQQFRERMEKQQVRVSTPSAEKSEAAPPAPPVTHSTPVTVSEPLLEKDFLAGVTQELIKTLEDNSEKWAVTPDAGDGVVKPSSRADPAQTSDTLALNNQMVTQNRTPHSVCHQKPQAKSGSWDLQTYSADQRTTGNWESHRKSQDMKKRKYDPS

[14] = Vero E6 cell cytotoxicity, dose response, cytotoxicity control for non-replicating M. tuberculosis project, secondary assay (AID 492998); type: functional, VeroE6; details: Vero C1008
[15] = Trypanosoma cruzi growth suppression in host cells – NIH3T3 host cells, beta-gal luminescence, confirmation (AID 2044); type: functional, cell-based;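 further: intracellular parasites grown in NIH/3T3 mouse fibroblasts as host cells; luminescent beta-galactosidase reporter signal from transgenic T. cruzi replicating inside host cells; inhibitors lower the luminescence signal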
[16] = THP-1 cell cytotoxicity, dose response, cytotoxicity control for non-replicating M. tuberculosis project (AID 489025); type: functional
Streptococcus = test: GAS UMAA2166 growth inhibition – luminescence, BacTiterGlo, counter-screen for streptokinase expression inhibitor project, dose response (AID 1915); type: functional, organism-based; details: Streptococcus;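 further: potency for reduction of bacterial viability or growth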
cells = type: functional
[17] = system: Streptococcus sp. 'group A'; test: Streptococcus pyogenes SK(-)GAS viability under kanamycin – luminescence, BacTiterGlo, confirmation, counter-screen for streptokinase expression inhibitor project, dose response (AID 1900); type: functional, organism-based; details: Streptococcus sp. 'group A'
[18] = NIH3T3 cell viability loss – ATP luminescence, mouse fibroblasts, counter-screen, dose response (AID 2010); type: functional, cell-based; details: NIH3T3;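 further: cells exposed to compound for about 90 hours before reading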

## CC1Cc2ccccc2N1S(=O)(=O)c1cnc(Cl)c(Br)c1 (stereo not drawn)
[1]
  IC50: 69.3 µM (inactive)

## C/C(=N\NC(=O)c1nnn(-c2nonc2N)c1CN(C)c1ccccc1)c1ccccn1
[2]
  CC50: 2.43 µM (active)

## CSC1CCCCC1(O)CSc1nc2c(cc1C#N)CCCC2 (stereo not drawn)
[3]
  EC50: > 120 µM (not active)
[1]
  IC50: > 80 µM (inactive)
[4]
  EC50: 22.3 µM (active)
[5]
  EC50: 14.1 µM (active)

## FC(F)(F)c1cc(CO[C@@H]2CCCN[C@@H]2c2ccccc2)cc(C(F)(F)F)c1
[6]
  IC50: > 20 µM (inactive)
[2]
  CC50: 24.2 µM (active)

## CC(C)(C)NC(=S)N/N=C/c1cc(Br)c(O)c(Br)c1
[7]
  EC50: 32.2 µM (active)
HEK293 [8]
  IC50: > 20 µM (inactive)
[9]
  EC50: 2.86 µM (active)
HEK293 [10]
  IC50: > 20 µM (inactive)
HEK293 [11]
  EC50: 5.75 µM (active)
HEK293 [12]
  IC50: 16.9 µM (inactive)

## CN(C)CCCOc1ccc(-c2cc3nc(NCc4cccnc4)n(C)c(=O)c3s2)cn1
[13]
  AC50: 11.2 µM (active)

## CCN(CC)CCNc1ncnc2c1sc1nc(N3CCOCC3)c3c(c12)CCCC3
[6]
  IC50: > 20 µM (inactive)
[13]
  AC50: 4.88 µM (active)

## COc1ccc(NC(=O)c2nnn(Cc3cccc(F)c3)c2N)c(OC)c1
[1]
  IC50: > 80 µM (inactive)

## COc1ccccc1/C=C1\SC(=S)N(CCC(=O)Nc2nnc(C)s2)C1=O
[1]
  IC50: > 80 µM (inactive)

## Cc1ccn2c(NC3CCCC3)c(-c3ccccn3)nc2c1
[14]
  CC50: 10.1 µM (active)
[15]
  EC50: 2.06 µM (active)
[16]
  CC50: 17.5 µM (active)
Streptococcus
  EC50: 13.3 µM (active)
cells
  IC50: 4.71 µM (active)
[17]
  EC50: 3.14 µM (active)
[18]
  EC50: > 60 µM (not active)

## c1ccc(C[C@H]2CN=C(Nc3ccccc3)N2CCCC2CCCCC2)cc1
[6]
  IC50: > 20 µM (inactive)

## COc1ccc(C(=O)Nc2ccccc2C(=O)NCc2ccco2)cc1OC
[1]
  IC50: > 80 µM (inactive)
